How the values were obtained:
Type in all cases: cell-based, human
[1] = system: IQGAP2-silenced cells; test: Cell proliferation of IQGAP2-silenced cells after administration of inhibitors (CCK8); settings: IQGAP2-silenced HaCaT and HEK293 cells; each inhibitor in a dose of IC50; FIG. 7 and FIG. 8
From the text: That is, the pathway was further determined by verifying whether the cell proliferation caused by IQGAP2 silencing can be alleviated by inhibiting the AKT activity and mTORC1 activity (key factors of the mTOR pathway) in IQGAP2-silenced cells with the inhibitors.
Then, HaCaT cells and HEK293 cells were administrated with each inhibitor in a dose of IC50.

[2] = system: HaCaT cells; test: Dose-dependent cell viability, preliminary IC50 experiment (HaCaT); settings: FIG. 6
[3] = system: HEK293 cells; test: Dose-dependent cell viability, preliminary IC50 experiment (HEK293); settings: FIG. 6
[4] = system: IQGAP2 gene; test: IQGAP2 silencing by shRNA, gene and protein expression (HEK293); settings: HEK293 cells; lentiviral transduction; 72 hours; FIG. 3
From the text: (§1) To verify whether the abnormal IQGAP2 affected cell proliferation, IQGAP2-silenced cells were constructed using an RNAi approach. Since TSC could affect the skin and kidney of the patients, human keratinocytes (HaCaT) cells and human embryonic kidney 293 (HEK 293) cells were chosen as cell models. The shRNA sequence was designed and constructed for the IQGAP2 gene (as shown in Table 1), and IQGAP2-silenced HaCaT cells and IQGAP2-silenced HEK293 cells were obtained by lentiviral transduction. Subsequently, the cell proliferation of IQGAP2-silenced cells was detected at 24, 48, and 72 hours by using Cell Counting Kit 8 (CCK8).
(§2) The results were shown in FIGS. 3 to 4, and FIG. 3 depicted the gene expression level of IQGAP2-silenced human keratinocytes cells and IQGAP2-silenced human embryonic kidney 293 cells at 72 hours. […] And Control represented a control group, shGFP represented the empty vector control group, sh IQ IQGAP2-1, sh IQ IQGAP2-2, and sh IQ IQGAP2-3 represented the corresponding shRNA-1 to shRNA-3 primer silencing groups (repeated in triplicate for each group), respectively, and GAPDH represented the internal reference gene.

[5] = system: IQGAP2 gene; test: IQGAP2 silencing by shRNA, gene and protein expression (HaCaT); settings: HaCaT cells; lentiviral transduction; 72 hours; FIG. 3
From the text: as §1, §2

## O=c1[nH]c2ccccc2n1C1CCN(Cc2ccc(-c3nc4cc5[nH]cnc5cc4nc3-c3ccccc3)cc2)CC1 [AKT inhibitor VIII]
[1]
  cell proliferation of IQGAP2-silenced cells: reduce the cell proliferation
[2]
  IC50: 25 µM
[3]
  IC50: 12.5 µM

## IQGAP2-shRNA-1: IQGAP2-silenced shRNA sequence 5′-GCTCCTACCTACTGCGAATAT-3′ (SEQ ID NO. 1) (GCUCCUACCUACUGCGAAUAU)
[4]
  IQGAP2 silencing: optimum silencing

## CO[C@H]1C[C@@H]2CC[C@@H](C)[C@@](O)(O2)C(=O)C(=O)N2CCCC[C@H]2C(=O)O[C@H]([C@H](C)C[C@@H]2CC[C@@H](O)[C@H](OC)C2)CC(=O)[C@H](C)/C=C(\C)[C@@H](O)[C@@H](OC)C(=O)[C@H](C)C[C@H](C)/C=C/C=C/C=C/1C [Rapamycin]
[2]; Homo sapiens
  IC50: 50 µM
[3]; Homo sapiens
  IC50: 12.5 µM

## IQGAP2-shRNA-3: IQGAP2-silenced shRNA sequence 5′-GCTCCAGATGGCTTTGATATC-3′ (SEQ ID NO. 3) (GCUCCAGAUGGCUUUGAUAUC)
[5]
  IQGAP2 silencing: optimum silencing

From patent US20250257401A1, “BIOMARKER FOR TUBEROUS SCLEROSIS COMPLEX WITH NO MUTATION IDENTIFIED IN TSC1 OR TSC2 GENE, AND USES THEREOF” (Guangzhou KingMed Transformative Medicine Institute Co., …, priority 2022, published 2025)
